# Assay results as given in patent US11078197B2, “5-membered and bicyclic heterocyclic amides as inhibitors of rock” (BRISTOL-MYERS SQUIBB COMPANY, priority 2017, dated 2021).
# Biological target: ROCK2 (Homo sapiens (Human), UniProt O75116)
# Test: ROCK2 assay (peptide phosphorylation, LABCHIP 3000 Reader)
# Type: biochemical
# Details: 5 μM ATP, 1.5 μM peptide substrate, dose-response
# Description: After incubation, the reaction was terminated by the addition of EDTA and the phosphorylated and non-phosphorylated peptides separated using a LABCHIP®3000 Reader (Caliper Life Sciences). […] Compounds were tested in dose-response format, and the inhibition of kinase activity was calculated at each concentration of compound. […] Representative Examples were tested in the ROCK2 assay described above and found having ROCK2 inhibitory activity.
# ROCK2, sequence (O75116 whole entry, species assumed): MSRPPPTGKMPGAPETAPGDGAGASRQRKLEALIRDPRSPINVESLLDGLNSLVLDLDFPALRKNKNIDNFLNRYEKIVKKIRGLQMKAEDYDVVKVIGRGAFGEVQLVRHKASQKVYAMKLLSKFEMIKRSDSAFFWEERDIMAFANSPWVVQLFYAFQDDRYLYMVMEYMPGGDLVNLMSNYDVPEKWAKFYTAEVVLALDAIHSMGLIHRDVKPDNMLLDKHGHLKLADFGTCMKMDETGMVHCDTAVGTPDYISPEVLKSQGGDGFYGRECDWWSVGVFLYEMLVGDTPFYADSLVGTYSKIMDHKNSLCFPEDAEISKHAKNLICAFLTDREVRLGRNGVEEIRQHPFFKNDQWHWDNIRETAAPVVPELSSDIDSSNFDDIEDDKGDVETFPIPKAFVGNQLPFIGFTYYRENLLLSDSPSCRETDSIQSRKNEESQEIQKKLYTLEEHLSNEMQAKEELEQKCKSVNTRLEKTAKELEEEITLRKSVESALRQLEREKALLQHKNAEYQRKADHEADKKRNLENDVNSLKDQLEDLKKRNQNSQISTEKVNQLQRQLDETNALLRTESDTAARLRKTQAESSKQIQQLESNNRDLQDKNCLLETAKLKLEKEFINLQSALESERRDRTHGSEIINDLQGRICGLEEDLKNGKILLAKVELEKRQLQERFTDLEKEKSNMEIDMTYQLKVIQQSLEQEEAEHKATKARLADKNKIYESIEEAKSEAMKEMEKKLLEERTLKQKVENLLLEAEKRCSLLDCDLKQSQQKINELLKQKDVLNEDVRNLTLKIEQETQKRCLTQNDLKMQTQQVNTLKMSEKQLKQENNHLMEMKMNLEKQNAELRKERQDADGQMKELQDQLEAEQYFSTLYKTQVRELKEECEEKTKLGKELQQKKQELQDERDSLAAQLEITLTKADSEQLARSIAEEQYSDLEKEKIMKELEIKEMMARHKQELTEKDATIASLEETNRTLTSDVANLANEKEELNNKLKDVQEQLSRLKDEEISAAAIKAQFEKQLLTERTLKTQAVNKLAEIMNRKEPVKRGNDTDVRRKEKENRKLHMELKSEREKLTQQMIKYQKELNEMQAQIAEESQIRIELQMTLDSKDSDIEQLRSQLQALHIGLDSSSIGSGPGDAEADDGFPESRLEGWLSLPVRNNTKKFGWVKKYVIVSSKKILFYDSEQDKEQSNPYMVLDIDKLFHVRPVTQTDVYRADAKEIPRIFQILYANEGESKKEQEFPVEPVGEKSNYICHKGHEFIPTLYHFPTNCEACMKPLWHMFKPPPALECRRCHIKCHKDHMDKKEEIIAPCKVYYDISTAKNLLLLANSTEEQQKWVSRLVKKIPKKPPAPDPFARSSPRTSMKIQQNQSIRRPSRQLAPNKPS
row,SMILES,IC50
1,"NC(=O)c1c(O[C@H]2C[C@@]3(C[C@H](NC(=O)c4cnn5cc(OCC(F)F)ccc45)C3)C2)nn2cc(F)ccc12 (stereo partly drawn) [Example 127, 6-fluoro-2-{[(4s)-6-[6-(2,2-difluoroethoxy)pyrazolo[1,5-a]pyridine-3-amido]spiro[3.3]heptan-2-yl]oxy}pyrazolo[1,5-a]pyridine-3-carboxamide]",113 nM
2,"CC(C)(O)COc1ccc2c(C(=O)N[C@H]3C[C@]4(C3)C[C@H](Oc3nn5cc(F)ccc5c3C(N)=O)C4)nn(C(F)F)c2c1 (stereo partly drawn) [Example 128, 1-(difluoromethyl)-6-(2-hydroxy-2-methylpropoxy)-N-[(4s)-6-({3-carbamoyl-6-fluoropyrazolo[1,5-a]pyridin-2-yl}oxy)spiro[3.3]heptan-2-yl]-1H-indazole-3-carboxamide]",83.2 nM
3,"Cc1c(C(=O)N[C@H]2C[C@]3(C2)C[C@H](Oc2nn4cc(F)ccc4c2C(N)=O)C3)cnn1-c1ccc(C#N)cc1 (stereo partly drawn) [Example 129, 1-(4-cyanophenyl)-5-methyl-N-[(4s)-6-({3-carbamoyl-6-fluoropyrazolo[1,5-a]pyridin-2-yl}oxy)spiro[3.3]heptan-2-yl]-1H-pyrazole-4-carboxamide]",702 nM
4,"CC(C)(O)COc1ccc2c(C(=O)N[C@H]3C[C@]4(C3)C[C@H](Oc3nn5cc(C(F)(F)F)ccc5c3C(N)=O)C4)nn(C(F)F)c2c1 (stereo partly drawn) [Example 130, 1-(difluoromethyl)-6-(2-hydroxy-2-methylpropoxy)-N-[(4s)-6-{[3-carbamoyl-6-(trifluoromethyl)pyrazolo[1,5-a]pyridin-2-yl]oxy}spiro[3.3]heptan-2-yl]-1H-indazole-3-carboxamide]",611 nM
5,"NC(=O)c1c(O[C@H]2C[C@@]3(C[C@H](NC(=O)c4cnn5cc(OCC(F)F)ccc45)C3)C2)nn2cc(C(F)(F)F)ccc12 (stereo partly drawn) [Example 131, 2-{[(4s)-6-[6-(2,2-difluoroethoxy)pyrazolo[1,5-a]pyridine-3-amido]spiro[3.3]heptan-2-yl]oxy}-6-(trifluoromethyl)pyrazolo[1,5-a]pyridine-3-carboxamide]",1170 nM
6,"Cc1ccn2nc(O[C@H]3C[C@@]4(C[C@H](NC(=O)c5nn(C(F)F)c6cc(OCC(C)(C)O)ccc56)C4)C3)c(C(N)=O)c2c1 (stereo partly drawn) [Example 132, 1-(difluroomethyl)-6-(2-hydroxy-2-methylpropoxy)-N-[(4s)-6-({3-carbamoyl-5-methylpyrazolo[1,5-a]pyridin-2-yl}oxy)spiro[3.3]heptan-2-yl]-1H-indazole-3-carboxamide]",223 nM
7,"Cc1cccc2c(C(N)=O)c(O[C@H]3C[C@@]4(C[C@H](NC(=O)c5nn(C(F)F)c6cc(OCC(C)(C)O)ccc56)C4)C3)nn12 (stereo partly drawn) [Example 133, 1-(difluoromethyl)-6-(2-hydroxy-2-methylpropoxy)-N-[(4s)-6-({3-carbamoyl-7-methylpyrazolo[1,5-a]pyridin-2-yl}oxy)spiro[3.3]heptan-2-yl]-1H-indazole-3-carboxamide]",20.2 nM
8,"CC(C)(O)COc1ccc2c(C(=O)N[C@H]3C[C@]4(C3)C[C@H](Oc3nn5c(-c6ccccc6)cccc5c3C(N)=O)C4)nn(C(F)F)c2c1 (stereo partly drawn) [Example 134, 1-(difluoromethyl)-6-(2-hydroxy-2-methylpropoxy)-N-[(4s)-6-({3-carbamoyl-7-phenylpyrazolo[1,5-a]pyridin-2-yl}oxy)spiro[3.3]heptan-2-yl]-1H-indazole-3-carboxamide]",143 nM
9,"CC(C)(O)COc1ccc2c(C(=O)N[C@H]3C[C@]4(C3)C[C@H](Oc3nn5cc(-c6ccc(F)nc6)ccc5c3C(N)=O)C4)nn(C(F)F)c2c1 (stereo partly drawn) [Example 135, 1-(difluoromethyl)-6-(2-hydroxy-2-methylpropoxy)-N-[(4s)-6-{[3-carbamoyl-6-(6-fluoropyridin-3-yl)pyrazolo[1,5-a]pyridin-2-yl]oxy}spiro[3.3]heptan-2-yl]-1H-indazole-3-carboxamide]",390 nM
10,"CC(C)(O)COc1ccc2c(C(=O)N[C@H]3C[C@]4(C3)C[C@H](Oc3nn5ccc(-c6ccc(F)nc6)cc5c3C(N)=O)C4)nn(C(F)F)c2c1 (stereo partly drawn) [Example 136, 1-(difluoromethyl)-6-(2-hydroxy-2-methylpropoxy)-N-[(4s)-6-{[3-carbamoyl-5-(6-fluoropyridin-3-yl)pyrazolo[1,5-a]pyridin-2-yl]oxy}spiro[3.3]heptan-2-yl]-1H-indazole-3-carboxamide]",112 nM
11,"CC(C)(O)COc1ccc2c(C(=O)N[C@H]3C[C@]4(C3)C[C@H](Oc3nn5ccc(-c6ccccc6)cc5c3C(N)=O)C4)nn(C(F)F)c2c1 (stereo partly drawn) [Example 137, 1-(difluoromethyl)-6-(2-hydroxy-2-methylpropoxy)-N-[(4s)-6-({3-carbamoyl-5-phenylpyrazolo[1,5-a]pyridin-2-yl}oxy)spiro[3.3]heptan-2-yl]-1H-indazole-3-carboxamide]",150 nM
12,"COc1cccc2c(C(N)=O)c(O[C@H]3C[C@@]4(C[C@H](NC(=O)c5nn(C(F)F)c6cc(OCC(C)(C)O)ccc56)C4)C3)nn12 (stereo partly drawn) [Example 138, 1-(difluoromethyl)-6-(2-hydroxy-2-methylpropoxy)-N-[(4s)-6-({3-carbamoyl-7-methoxypyrazolo[1,5-a]pyridin-2-yl}oxy)spiro[3.3]heptan-2-yl]-1H-indazole-3-carboxamide]",22 nM
13,"CC(C)CC1NC(=O)N([C@H]2CC3(C[C@H](Oc4nn5ccccc5c4C(N)=O)C3)C2)C1=O (stereo partly drawn) [Example 139, 2-(((2S,4s,6S)-6-(4-isobutyl-2,5-dioxoimidazolidin-1-yl)spiro[3.3]heptan-2-yl)oxy)pyrazolo[1,5-a]pyridine-3-carboxamide]",208 nM
14,"CC(CC1NC(=O)N([C@H]2C[C@@]3(C[C@H](Oc4nn5ccccc5c4C(N)=O)C3)C2)C1=O)C(F)(F)F (stereo partly drawn) [Example 140, 2-{[(4s)-6-[2,5-dioxo-4-(3,3,3-trifluoro-2-methylpropyl)imidazolidin-1-yl]spiro[3.3]heptan-2-yl]oxy}pyrazolo[1,5-a]pyridine-3-carboxamide]",62.1 nM
15,"CC(CC1NC(=O)N([C@H]2C[C@@]3(C[C@H](Oc4nn5ccccc5c4C(N)=O)C3)C2)C1=O)C(F)(F)F (stereo partly drawn) [Example 141, 2-{[(4s)-6-[2,5-dioxo-4-(3,3,3-trifluoro-2-methylpropyl)imidazolidin-1-yl]spiro[3.3]heptan-2-yl]oxy}pyrazolo[1,5-a]pyridine-3-carboxamide]",203 nM
16,"CC(C)CNc1nnc(C(=O)N[C@H]2C[C@]3(C2)C[C@H](Oc2nc4c(cc2C(N)=O)COCC4)C3)s1 (stereo partly drawn) [Example 142, 5-[(2-methylpropyl)amino]-N-[(4s)-6-({3-carbamoyl-5H,7H,8H-pyrano[4,3-b]pyridin-2-yl}oxy)spiro[3.3]heptan-2-yl]-1,3,4-thiadiazole-2-carboxamide]",60.3 nM
17,"NC(=O)c1cc2c(nc1O[C@H]1C[C@@]3(C[C@H](NC(=O)c4cccc(OC(F)(F)F)c4)C3)C1)CCOC2 (stereo partly drawn) [Example 143, 2-{[(4s)-6-[3-(trifluoromethoxy)benzamido]spiro[3.3]heptan-2-yl]oxy}-5H,7H,8H-pyrano[4,3-b]pyridine-3-carboxamide]",109 nM
18,"Cc1nc(NCC(C)(C)O)sc1C(=O)N[C@H]1C[C@]2(C1)C[C@H](Oc1nc3c(cc1C(N)=O)COCC3)C2 (stereo partly drawn) [Example 144, 2-[(2-hydroxy-2-methylpropyl)amino]-4-methyl-N-[(4s)-6-({3-carbamoyl-5H,7H,8H-pyrano[4,3-b]pyridin-2-yl}oxy)spiro[3.3]heptan-2-yl]-1,3-thiazole-5-carboxamide]",367 nM
